“And” between values parts separate entries of the source, which are not always exact repeats. Identical values can stand only once. Toxic doses and inconclusive results are not listed.
Tested on: P388 leukemia ip, CD2F1 mice, survival T/C
Assay: NCI In Vivo Anticancer Drug Screen. Data for tumor model P388 Leukemia (intraperitoneal) in CD2F1 (CDF1) mice
Conditions: endpoint: median survival time, higher = longer survival
Summary of the method: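 Mice carrying the transplanted tumor received test compound or vehicle. Survival was recorded in each group, and the value is the treated-group measurement divided by that of the vehicle-treated control group.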

[1] = dose: 6.25 mg/kg/injection, schedule: Q01DX009 (ip), vehicle: water
[2] = dose: 12.5 mg/kg/injection, schedule: Q01DX009 (ip), vehicle: water
[3] = dose: 100.0 mg/kg/injection, schedule: Q01DX009 (ip), vehicle: saline
[4] = dose: 50.0 mg/kg/injection, schedule: Q01DX009 (ip), vehicle: saline with Tween-80
[5] = dose: 100.0 mg/kg/injection, schedule: Q01DX009 (ip), vehicle: saline with Tween-80
[6] = dose: 200.0 mg/kg/injection, schedule: Q01DX009 (ip), vehicle: saline with Tween-80
[7] = dose: 12.5 mg/kg/injection, schedule: Q01DX009 (ip), vehicle: saline with Tween-80
[8] = dose: 25.0 mg/kg/injection, schedule: Q01DX009 (ip), vehicle: saline with Tween-80
[9] = dose: 6.25 mg/kg/injection, schedule: Q01DX005 (ip), vehicle: Klucel (hydroxypropylcellulose) (HPC)
[10] = dose: 12.5 mg/kg/injection, schedule: Q01DX005 (ip), vehicle: Klucel (hydroxypropylcellulose) (HPC)
[11] = dose: 25.0 mg/kg/injection, schedule: Q01DX005 (ip), vehicle: Klucel (hydroxypropylcellulose) (HPC)
[12] = dose: 50.0 mg/kg/injection, schedule: Q01DX005 (ip), vehicle: saline
[13] = dose: 100.0 mg/kg/injection, schedule: Q01DX005 (ip), vehicle: saline
[14] = dose: 200.0 mg/kg/injection, schedule: Q01DX005 (ip), vehicle: saline

SMILES: O=C(CC(=NCC(O)CN=C(CC(=O)c1ccccc1)c1ccccc1)c1ccccc1)c1ccccc1 (stereo not drawn)
- T/C (dose: 100.0 mg/kg/injection, schedule: Q04DX002 (ip), vehicle: saline with Tween-80): 98 % of control
- T/C (dose: 200.0 mg/kg/injection, schedule: Q04DX002 (ip), vehicle: saline with Tween-80): 98 % of control
- T/C (dose: 400.0 mg/kg/injection, schedule: Q04DX002 (ip), vehicle: saline with Tween-80): 91 % of control

SMILES: O=C(O)c1cc([N+](=O)[O-])ccc1Nc1ccccc1
- T/C (dose: 6.25 mg/kg/injection, schedule: Q01DX009 (ip), vehicle: suspension in saline): 108 % of control and 90 % of control
- T/C (dose: 12.5 mg/kg/injection, schedule: Q01DX009 (ip), vehicle: suspension in saline): 104 % of control
- T/C (dose: 25.0 mg/kg/injection, schedule: Q01DX009 (ip), vehicle: suspension in saline): 100 % of control and 90 % of control
- T/C (dose: 50.0 mg/kg/injection, schedule: Q01DX009 (ip), vehicle: suspension in saline): 111 % of control and 91 % of control

SMILES: Nc1n[n+](C2CCCCC2)no1
- T/C (dose: 3.13 mg/kg/injection, schedule: Q01DX009 (ip), vehicle: water): 111 % of control
- T/C [1]: 98 % of control
- T/C [2]: 101 % of control

SMILES: O=C(CC(=O)N1CCN(c2ccccn2)CC1)N1CCN(c2ccccn2)CC1
- T/C (dose: 50.0 mg/kg/injection, schedule: Q01DX009 (ip), vehicle: saline): 101 % of control
- T/C [3]: 102 % of control

SMILES: CCCCCCCCCCCCOc1ccc(Br)cc1C(=O)O
- T/C [4]: 100 % of control
- T/C [5]: 112 % of control
- T/C [6]: 105 % of control

SMILES: O=NNc1cncc(Cl)n1
- T/C (dose: 3.12 mg/kg/injection, schedule: Q01DX009 (ip), vehicle: water): 100 % of control
- T/C [1]: 97 % of control
- T/C [2]: 105 % of control
- T/C (dose: 25.0 mg/kg/injection, schedule: Q01DX009 (ip), vehicle: water): 99 % of control
- T/C (dose: 50.0 mg/kg/injection, schedule: Q01DX009 (ip), vehicle: water): 92 % of control and 97 % of control

SMILES: C=COC(=O)C(Cc1cccs1)NC(=O)OCc1ccccc1 (stereo not drawn)
- T/C (dose: 50.0 mg/kg/injection, schedule: Q01DX005 (ip), vehicle: saline with Tween-80): 101 % of control
- T/C (dose: 100.0 mg/kg/injection, schedule: Q01DX005 (ip), vehicle: saline with Tween-80): 96 % of control
- T/C (dose: 200.0 mg/kg/injection, schedule: Q01DX005 (ip), vehicle: saline with Tween-80): 95 % of control

SMILES: Cc1ccc(NC(=O)N(CCCl)N=O)c(C)c1
- T/C (dose: 16.5 mg/kg/injection, schedule: Q04DX003 (ip), vehicle: saline with Tween-80): 190 % of control
- T/C (dose: 25.0 mg/kg/injection, schedule: Q04DX003 (ip), vehicle: saline with Tween-80): 250 % of control
- T/C (dose: 37.5 mg/kg/injection, schedule: Q04DX003 (ip), vehicle: saline with Tween-80): 90 % of control

SMILES: Cc1ccc2c(/C=C/c3ccc(N(C)C)cc3)ccnc2c1C
- T/C [7]: 123 % of control
- T/C [4]: 150 % of control
- T/C [5]: 99 % of control

SMILES: O=C(C(=O)c1ccc(C(=O)C(=O)c2ccccc2)cc1)c1ccccc1
- T/C (dose: 60.0 mg/kg/injection, schedule: Q01DX005 (ip), vehicle: saline with Tween-80): 104 % of control
- T/C (dose: 120.0 mg/kg/injection, schedule: Q01DX005 (ip), vehicle: saline with Tween-80): 93 % of control
- T/C (dose: 240.0 mg/kg/injection, schedule: Q01DX005 (ip), vehicle: saline with Tween-80): 96 % of control

SMILES: O=C1C=CC2(CCC23C=CC(=O)O3)O1 (stereo not drawn)
- T/C (dose: 10.0 mg/kg/injection, schedule: Q01DX009 (ip), vehicle: Klucel (hydroxypropylcellulose) (HPC)): 98 % of control
- T/C (dose: 20.0 mg/kg/injection, schedule: Q01DX009 (ip), vehicle: Klucel (hydroxypropylcellulose) (HPC)): 106 % of control
- T/C (dose: 40.0 mg/kg/injection, schedule: Q01DX009 (ip), vehicle: Klucel (hydroxypropylcellulose) (HPC)): 106 % of control

SMILES: CC(=O)Nc1c(-c2ccccc2)[nH]c2ccccc12
- T/C (dose: 100.0 mg/kg/injection, schedule: Q01DX001 (ip), vehicle: saline with Tween-80): 99 % of control

SMILES: CCCc1n(O)c(C)c(C)[n+]1[O-]
- T/C [4]: 91 % of control
- T/C [5]: 100 % of control
- T/C [6]: 104 % of control

SMILES: COC(=O)C(C#N)c1ccccn1 (stereo not drawn)
- T/C [4]: 96 % of control
- T/C [5]: 100 % of control

SMILES: c1ccc(CN2Cc3c(n(-c4ccccc4)c4ccccc34)C2)cc1
- T/C (dose: 100.0 mg/kg/injection, schedule: Q04DX003 (ip), vehicle: Klucel (hydroxypropylcellulose) (HPC)): 105 % of control
- T/C (dose: 200.0 mg/kg/injection, schedule: Q04DX003 (ip), vehicle: Klucel (hydroxypropylcellulose) (HPC)): 112 % of control
- T/C (dose: 400.0 mg/kg/injection, schedule: Q04DX003 (ip), vehicle: Klucel (hydroxypropylcellulose) (HPC)): 114 % of control

SMILES: O=C1NC(c2cccc3ccccc23)Nc2ccc(Cl)cc21 (stereo not drawn)
- T/C (dose: 12.5 mg/kg/injection, schedule: Q01DX009 (ip), vehicle: Klucel (hydroxypropylcellulose) (HPC)): 113 % of control
- T/C (dose: 25.0 mg/kg/injection, schedule: Q01DX009 (ip), vehicle: Klucel (hydroxypropylcellulose) (HPC)): 123 % of control
- T/C (dose: 50.0 mg/kg/injection, schedule: Q01DX009 (ip), vehicle: Klucel (hydroxypropylcellulose) (HPC)): 123 % of control

SMILES: c1ccc2c(c1)cc1c3nncn3ncn21
- T/C [7]: 100 % of control
- T/C [8]: 92 % of control
- T/C [4]: 93 % of control

SMILES: Cc1ccc(-n2c(C)nc3c(c(C)c(C)n3-c3ccccc3)c2=N)cc1
- T/C [9]: 90 % of control
- T/C [10]: 100 % of control
- T/C [11]: 98 % of control

SMILES: COC(=O)/C=C/c1ccc[n+]([O-])c1
- T/C [12]: 99 % of control
- T/C [13]: 98 % of control
- T/C [14]: 99 % of control

SMILES: O=C(/C(=C\c1ccccc1)c1ccccc1)c1ccccc1
- T/C [4]: 92 % of control
- T/C [5]: 88 % of control
- T/C [6]: 93 % of control
- T/C (dose: 400.0 mg/kg/injection, schedule: Q01DX009 (ip), vehicle: saline with Tween-80): 95 % of control

SMILES: CC1=C(CCC(C)NCc2ccc(OCCCN3CCCCC3)cc2)C(C)(C)CCC1 (stereo not drawn)
- T/C [9]: 104 % of control
- T/C [10]: 98 % of control
- T/C [11]: 104 % of control

SMILES: CCN(CC)CCN1N=C(c2ccccc2O)OCC1=O
- T/C [4]: 108 % of control
- T/C [5]: 103 % of control
- T/C [6]: 98 % of control

SMILES: CNc1ncnc2c1ccn2C1OC(CO)C(O)C1O (stereo not drawn)
- T/C (dose: 6.25 mg/kg/injection, schedule: Q01DX005 (ip), vehicle: saline with Tween-80): 100 % of control
- T/C (dose: 12.5 mg/kg/injection, schedule: Q01DX005 (ip), vehicle: saline with Tween-80): 108 % of control
- T/C (dose: 25.0 mg/kg/injection, schedule: Q01DX005 (ip), vehicle: saline with Tween-80): 100 % of control

SMILES: NC(=S)N/N=C\C(=N/NC(N)=S)c1cccc([N+](=O)[O-])c1
- T/C [7]: 92 % of control
- T/C [8]: 92 % of control
- T/C [4]: 93 % of control and 96 % of control
- T/C [5]: 96 % of control
- T/C [6]: 96 % of control

SMILES: O=C1C(Cl)OC(c2ccccc2)=NN1c1ccccc1 (stereo not drawn)
- T/C (dose: 50.0 mg/kg/injection, schedule: Q01DX005 (ip), vehicle: distilled water + alcohol): 97 % of control
- T/C (dose: 100.0 mg/kg/injection, schedule: Q01DX005 (ip), vehicle: distilled water + alcohol): 107 % of control
- T/C (dose: 200.0 mg/kg/injection, schedule: Q01DX005 (ip), vehicle: distilled water + alcohol): 97 % of control

SMILES: CCc1ccc[n+](-c2ccncc2CC)c1
- T/C (dose: 15.0 mg/kg/injection, schedule: Q01DX005 (ip), vehicle: saline): 96 % of control
- T/C (dose: 30.0 mg/kg/injection, schedule: Q01DX005 (ip), vehicle: saline): 100 % of control
- T/C (dose: 60.0 mg/kg/injection, schedule: Q01DX005 (ip), vehicle: saline): 106 % of control and 88 % of control

SMILES: Oc1cccnc1Cl
- T/C [8]: 110 % of control
- T/C [4]: 114 % of control
- T/C [5]: 114 % of control
- T/C [3]: 102 % of control
- T/C [6]: 119 % of control
- T/C (dose: 200.0 mg/kg/injection, schedule: Q01DX009 (ip), vehicle: saline): 101 % of control
- T/C (dose: 400.0 mg/kg/injection, schedule: Q01DX009 (ip), vehicle: saline): 108 % of control

SMILES: Cn1cc(N)c(=O)[nH]c1=O
- T/C [12]: 98 % of control
- T/C [13]: 101 % of control
- T/C [14]: 102 % of control

SMILES: CCCc1c(C(=O)O)c(-c2cccc3ccccc23)c(CCC)c2c1-c1cccc3cccc-2c13
- T/C [4]: 105 % of control
- T/C [5]: 102 % of control
- T/C [6]: 100 % of control

Reference: PubChem BioAssay AID330 (DTP/NCI, 2004)
